The values below come from the supplement of paper PMC10307832.

What all share (test): relative viability (nuclei count vs DMSO), 5 days (fraction); higher = more cells survive
Compound in test [1]: CC1=CN2C(=O)C=C(N=C2C(=C1)C(C)NC3=CC=CC=C3)N4CCOCC4 [TGX 221] + CS(=O)(=O)CCNCc1ccc(-c2ccc3ncnc(Nc4ccc(OCc5cccc(F)c5)c(Cl)c4)c3c2)o1 [Lapatinib] (partner 2 µM)
The gist of the method: (§1)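 A single step with final 0.05% Triton X-100, 1% formaldehyde and 1 ug/ml Hoechst fixed the cells and stained nuclei 5 days after treatment. Lung cancer cell lines in 1536-well plates had been treated by pin tool the day after seeding with one drug alone or a fixed anchor-drug dose plus five library-drug doses (not always all listed) in √10 steps, and nuclei were counted on 4× images. Relative viability is the ratio of nuclei in treated wells to nuclei in vehicle wells, taken as the median of duplicate plates.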

Compound in test [2]: O=C(CCCCCCNC(=O)c1cnc(N(c2ccccc2)c2ccccc2)nc1)NO [Ricolinostat] + CCNC(=O)c1noc(-c2cc(C(C)C)c(O)cc2O)c1-c1ccc(CN2CCOCC2)cc1 [Luminespib] (partner 0.01 µM)
The method in brief: as §1

Compound in test [3]: O=C(CCCCCCNC(=O)c1cnc(N(c2ccccc2)c2ccccc2)nc1)NO [Ricolinostat] + Cc1nc(NC(=O)N2CCC[C@H]2C(N)=O)sc1-c1ccnc(C(C)(C)C(F)(F)F)c1 [Alpelisib] (partner 2 µM)
The method in brief: as §1

Compound in test [4]: O=C(CCCCCCNC(=O)c1cnc(N(c2ccccc2)c2ccccc2)nc1)NO [Ricolinostat] + O=C(c1cc(Cc2n[nH]c(=O)c3ccccc23)ccc1F)N1CCN(C(=O)C2CC2)CC1 [Olaparib] (partner 8 µM)
The gist of the method: as §1

For NCI-H1792, the relative viability in test [1] (first compound 0.08 µM) is 0.782; in test [1] (first compound 0.253 µM), 0.983; in test [1] (first compound 0.8 µM) it was 0.814; in test [1] (first compound 2.53 µM), 0.846; in test [1] (first compound 8 µM) it was 0.887; in test [2] (first compound 0.08 µM) it was 0.297. The relative viability in test [2] (first compound 0.253 µM) stood at 0.417; in test [2] (first compound 0.8 µM), 0.373; in test [2] (first compound 2.53 µM), 0.418; in test [3] (first compound 0.08 µM) it was 0.55; in test [3] (first compound 0.253 µM), 0.661; in test [3] (first compound 0.8 µM), 0.67. Moreover, the relative viability turned out to be 0.59 in test [3] (first compound 2.53 µM), 0.391 in test [4] (first compound 0.253 µM), 0.284 in test [4] (first compound 0.8 µM) and 0.041 in test [4] (first compound 2.53 µM).
